# Reference: article PMC8581430, “Peptide ligands targeting FGF receptors promote recovery from dorsal root crush injury via AKT/mTOR signaling” (Theranostics, 2021)
# Key:
# [1] = system: ERK1/2 (phosphorylated) in DRG explants; test: Western blot of phosphorylated ERK1/2 in DRG explants; assay type: cell-based, rat; conditions: CH02 20 μM + BGJ398 2 μM, 4 h, n = 3
# Source text: (§1) Figure 6 Phosphoproteomic profiling of the intracellular signaling pathway used by CH02 for augmenting nerve regeneration. (A) GO biological process analysis of proteins corresponding to differentially expressed phosphorylated peptides. Ordinates indicate the enriched GO terms; abscissae represent the gene ratio; size of the dots indicates the number of proteins enriched in this biological process. (B) KEGG pathway analysis of proteins corresponding to differentially expressed phosphorylated peptides. Ordinates indicate the enriched pathway term; abscissae represent the gene ratio; size of the dots indicates number of proteins enriched in this pathway. […] (D-E) Quantification of p-ERK1/2 and p-AKT expression levels. n = 3 independent experiments. Relative protein expression level was quantified after normalization to the corresponding total proteins. […] (G-H) Quantification of p-ERK1/2 and p-AKT expression levels. n = 3 independent experiments. Relative protein expression level was quantified after normalization to the corresponding total proteins. […] The axon is shown in fluorescence (NF200) images. […] For quantification of axon length, neurons were immunostained using an antibody against β-tubulin. […] (N) Quantification of TUNEL-positive neurons (M) using ImageJ software (n = 5 for each condition; ***p < 0.001 by one-way ANOVA with Dunnett's test; mean ± SEM). […]
# [2] = system: AKT (phosphorylated) in DRG explants; test: Western blot of phosphorylated AKT in DRG explants; assay type: cell-based, rat; conditions: CH02 20 μM + BGJ398 2 μM, 4 h, n = 3
# Source text: as §1
# primary DRG neurons = test: TUNEL assay of DRG neuron apoptosis induced by H2O2; assay type: cell-based, Sprague-Dawley rat; conditions: CH02 + inhibitor 24 h, then H2O2 12 h, n = 5
# Procedure: Figure 3 Effect of the CH02 peptide on axon growth and neuron survival. (A) Representative images of the CH02 peptide effect on axon growth in adult primary DRG neurons. DRG neurons were obtained from adult Sprague-Dawley rats. After 12-h of culture, neurons were stimulated with CH02 or bFGF for 48 h. Axonal outgrowth was assessed by immunocytochemistry using an antibody against β-tubulin, an axonal marker. Images were acquired from random neurons by fluorescence microscopy. Scale bars = 50 μm. (B) Quantification of the longest axon length of each neuron randomly selected in three independent experiments from (A), using Image-Pro Plus 6.0 software (n = 48 for each condition; *p < 0.05, ****p < 0.0001 by one-way ANOVA with Dunnett's test; ns, not significant; mean ± SD). […] The axon is shown in fluorescence (β3-tubulin) images. […] (D) Quantification of axon growth of DRG explants from (C) using the Neurite-J software (n=4 for each condition; *control vs. CH02; #control vs. bFGF; *p < 0.05, **p < 0.01, ***p < 0.001, #p < 0.05, ##p < 0.01 by two-way ANOVA with Dunnett's test; ns, not significant; mean ± SEM). […] LDH released from damaged cell membranes was detected by an LDH assay kit. The results are expressed as the mean ± SEM (**p < 0.01 by one-way ANOVA with Dunnett's test; ns, not significant, compared with the control group). […] Apoptotic neurons were detected by a TUNEL apoptosis assay kit. […]
Compound,effect of inhibitor on CH02-upregulated phosphorylated ERK [1],effect of inhibitor on CH02-upregulated phosphorylated AKT [2],effect of inhibitor on protective effect of CH02 against H2O2-induced apoptosis (primary DRG neurons)
CCN1CCN(c2ccc(Nc3cc(N(C)C(=O)Nc4c(Cl)c(OC)cc(OC)c4Cl)ncn3)cc2)CC1 [BGJ398],counteracted CH02 effect on upregulating phosphorylated AKT and ERK levels,counteracted CH02 effect on upregulating phosphorylated AKT and ERK levels,–
N#CC(=C(/N)Sc1ccccc1N)/C(C#N)=C(/N)Sc1ccccc1N [U0126],–,–,significantly reduced the protective effect of CH02 on neurons from apoptosis induced by H2O2
